The target of assay [1] is T1, c-Met (cytoplasmic domain) (Homo sapiens, UniProt P08581).
T1 construct: 10 ng/mL c-Met (cytoplasmic domain, Invitrogen Corporation #PV3143); purchased Invitrogen Corporation PV3143
The assay can be described thus: c-Met Kinase Assay (same methods as for ALK, with modifications). The format is biochemical. In short, it runs like this:
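Wells were coated with 10 μg/mL phospholipase C-γ substrate in TBS, and reactions were started with 10 ng/mL c-Met cytoplasmic domain and run at 37° C for 15 minutes. Phosphorylated product was detected with Eu-N1-labeled PT66 antibody. IC50 values came from sigmoidal variable-slope fits of percent inhibition versus log compound concentration.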

The target in assay [2] is T2, baculovirus-expressed ALK (Homo sapiens, UniProt Q9UM73).
T2 construct: host or cells: baculovirus expression system
The assay can be described thus: ALK Kinase Assay (ELISA-type, time-resolved fluorescence). The format is biochemical. In short, it runs like this: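 Substrate coating: phospholipase C-γ, 10 μg/mL in TBS. Kinase step: 30 ng/ml ALK, 15 min, 37° C. Detection and analysis: Eu-N1 PT66 antibody, with IC50 fitted as a sigmoidal variable-slope dose-response curve.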

Where [3] appears, read: c-Met kinase inhibition, 1 μM ATP, read-out: cMet Activity.
The mark [4] stands for this setting: ALK kinase inhibition, 1 μM ATP, read-out: ALK Activity.
Where [5] appears, read: 1 μM ATP (Km level), read-out: cMet Activity (c-Met Kinase Inhibition, IC50).
The mark [6] stands for this setting: 1 μM ATP (Km level), read-out: ALK Activity (ALK Kinase Inhibition, IC50).
Setting [7] is: 1 μM ATP (Km level), 10 ng/mL c-Met, read-out: cMet Activity (c-Met kinase inhibition, IC50 class).
Where [8] appears, read: 1 μM ATP (Km level), 30 ng/ml ALK, 37° C., 15 minutes, read-out: ALK Activity (ALK kinase inhibition, IC50 class).
Where [9] appears, read: c-Met kinase inhibition, 1 μM ATP (Km level), read-out: cMet Activity.
[10] abbreviates: ALK kinase inhibition, 1 μM ATP (Km level), read-out: ALK Activity.

Like-named read-outs stand apart in the source and are kept apart here.

T1 sequence (P08581 956-1390 limits assumed): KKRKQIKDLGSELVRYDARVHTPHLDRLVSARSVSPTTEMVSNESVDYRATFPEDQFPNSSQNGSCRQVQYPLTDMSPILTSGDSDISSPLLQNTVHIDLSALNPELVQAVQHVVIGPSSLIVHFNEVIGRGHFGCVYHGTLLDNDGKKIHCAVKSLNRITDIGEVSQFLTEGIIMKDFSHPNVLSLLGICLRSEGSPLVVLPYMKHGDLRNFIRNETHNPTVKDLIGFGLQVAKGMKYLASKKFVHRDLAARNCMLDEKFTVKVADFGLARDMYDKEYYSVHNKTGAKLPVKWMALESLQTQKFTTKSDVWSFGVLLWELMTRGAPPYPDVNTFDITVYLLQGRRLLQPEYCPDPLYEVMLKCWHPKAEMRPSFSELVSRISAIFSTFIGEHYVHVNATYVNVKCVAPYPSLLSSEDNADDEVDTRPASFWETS
T2 sequence (Q9UM73 19-1620): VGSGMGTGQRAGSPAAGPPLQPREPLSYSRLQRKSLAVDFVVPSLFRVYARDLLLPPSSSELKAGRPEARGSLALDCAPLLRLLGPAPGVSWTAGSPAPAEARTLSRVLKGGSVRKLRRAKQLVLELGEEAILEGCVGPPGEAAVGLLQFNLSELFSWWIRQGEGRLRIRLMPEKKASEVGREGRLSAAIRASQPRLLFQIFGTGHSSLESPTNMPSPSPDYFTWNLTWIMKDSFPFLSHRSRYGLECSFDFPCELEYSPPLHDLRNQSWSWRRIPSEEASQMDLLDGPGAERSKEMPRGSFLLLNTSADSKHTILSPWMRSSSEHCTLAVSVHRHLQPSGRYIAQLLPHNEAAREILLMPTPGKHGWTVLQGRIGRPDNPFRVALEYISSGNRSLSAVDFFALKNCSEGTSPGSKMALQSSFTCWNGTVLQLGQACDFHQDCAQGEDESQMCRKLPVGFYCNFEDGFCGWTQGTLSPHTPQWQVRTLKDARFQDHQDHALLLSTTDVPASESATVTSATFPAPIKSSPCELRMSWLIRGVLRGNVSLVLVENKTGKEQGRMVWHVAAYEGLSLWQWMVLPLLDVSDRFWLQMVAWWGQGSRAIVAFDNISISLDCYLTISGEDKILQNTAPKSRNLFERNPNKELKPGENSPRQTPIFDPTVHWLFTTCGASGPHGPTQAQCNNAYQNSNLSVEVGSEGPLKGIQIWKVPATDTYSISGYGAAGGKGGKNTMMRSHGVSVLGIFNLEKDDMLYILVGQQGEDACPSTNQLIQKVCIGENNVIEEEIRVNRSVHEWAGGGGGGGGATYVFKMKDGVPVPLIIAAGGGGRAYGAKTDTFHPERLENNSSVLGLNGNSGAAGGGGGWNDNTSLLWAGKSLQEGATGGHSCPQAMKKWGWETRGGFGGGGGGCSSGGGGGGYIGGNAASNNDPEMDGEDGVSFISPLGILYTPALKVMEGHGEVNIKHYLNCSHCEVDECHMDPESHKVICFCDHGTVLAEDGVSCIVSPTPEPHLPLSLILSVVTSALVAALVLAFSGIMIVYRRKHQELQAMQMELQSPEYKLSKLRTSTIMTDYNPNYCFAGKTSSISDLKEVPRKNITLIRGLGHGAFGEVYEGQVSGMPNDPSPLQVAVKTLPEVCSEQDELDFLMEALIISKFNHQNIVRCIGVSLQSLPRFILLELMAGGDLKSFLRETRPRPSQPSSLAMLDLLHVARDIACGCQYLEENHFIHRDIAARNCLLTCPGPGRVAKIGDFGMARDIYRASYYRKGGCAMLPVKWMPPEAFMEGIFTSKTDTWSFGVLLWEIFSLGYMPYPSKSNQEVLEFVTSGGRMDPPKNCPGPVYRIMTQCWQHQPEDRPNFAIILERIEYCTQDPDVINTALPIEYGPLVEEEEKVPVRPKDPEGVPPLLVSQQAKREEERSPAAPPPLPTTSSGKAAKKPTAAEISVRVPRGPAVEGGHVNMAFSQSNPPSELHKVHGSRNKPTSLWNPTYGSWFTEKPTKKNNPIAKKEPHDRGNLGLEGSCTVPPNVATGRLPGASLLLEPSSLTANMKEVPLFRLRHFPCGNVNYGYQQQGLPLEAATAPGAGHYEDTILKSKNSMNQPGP

On to `COc1cc2c(cc1Nc1ncc(Cl)c(Nc3ccccc3S(=O)(=O)N3CC[C@@H](O)C3)n1)CCN(CC(C)(C)O)CC2` [Example 1561, (R)-1-(2-{5-Chloro-2-[3-(2-hydroxy-2-methyl-propyl)-8-methoxy-2,3,4,5-tetrahydro-1H-3-benzazepin-7-ylamino]-pyrimidin-4-ylamino}-benzenesulfonyl)-pyrrolidin-3-ol], for which the IC50 in assay [1] (setting [3]) was 1000 to 10000 nM; in assay [2] (setting [4]), less than 100 nM.

For the molecule `COc1cc2c(cc1Nc1ncc(Cl)c(Nc3ccccc3S(=O)(=O)N3CC[C@@H](N(C)C)C3)n1)CCN(CC(=O)N(C)C)CC2` [Example 845, 2-(7-{5-Chloro-4-[2-((R)-3-dimethylamino-pyrrolidine-1-sulfonyl)-phenylamino]-pyrimidin-2-ylamino}-8-methoxy-1,2,4,5-tetrahydro-benzo[d]azepin-3-yl)-N,N-dimethyl-acetamide], the IC50 in assay [1] (setting [5]) is more than 10000 nM; in assay [2] (setting [6]) it was less than 100 nM.

With `COc1ccc2c(c1Nc1ncc(Cl)c(N[C@@H]3CCCC[C@H]3NS(C)(=O)=O)n1)CCC(NCC(F)F)CC2` (single isomer, unassigned) [Example 1075], the IC50 is more than 10000 nM in assay [1] (setting [7]) and 1000 to 10000 nM in assay [2] (setting [8]).

In the case of `COCCN1CCc2ccc(Nc3ncc(Cl)c(Oc4c(F)cccc4OC4CCOC4)n3)cc2CC1` (centres unmarked) [Example 1308, {5-Chloro-4-[2-fluoro-6-(tetrahydro-furan-3-yloxy)-phenoxy]-pyrimidin-2-yl}-[3-(2-methoxy-ethyl)-2,3,4,5-tetrahydro-1H-3-benzazepin-7-yl]-amine], the IC50 was in the range of 1000 to 10000 nM in assay [1] (setting [7]) and 100 to 1000 nM in assay [2] (setting [8]).

For `COc1c(Nc2ncc(Cl)c(Nc3ccccc3S(=O)(=O)N(C)C)n2)ccc2c1CCC(NCC(F)F)CC2` (centres unmarked) [Example 683, 2-{5-Chloro-2-[7-(2,2-difluoro-ethylamino)-1-methoxy-6,7,8,9-tetrahydro-5H-benzocyclohepten-2-ylamino]-pyrimidin-4-ylamino}-N,N-dimethyl-benzenesulfonamide], the IC50 is more than 10000 nM in assay [1] (setting [5]) and less than 100 nM in assay [2] (setting [6]).

For the molecule `COCCN1CCN(C)c2cc(Nc3ncc(Cl)c(NC4C5CCC(C5)C4C(N)=O)n3)c(OC)cc2C1` (stereo not drawn) [Example 491, (2-exo,3-exo)-3-{5-Chloro-2-[7-methoxy-4-(2-methoxy-ethyl)-1-methyl-2,3,4,5-tetrahydro-1H-benzo[e][1,4]diazepin-8-ylamino]-pyrimidin-4-ylamino}-bicyclo[2.2.1]heptane-2-carboxylic acid amide], the IC50 was more than 10000 nM in assay [1] (setting [9]) and less than 100 nM in assay [2] (setting [10]).

For `CCN1C2CCC1c1cc(Nc3ncc(Cl)c(Nc4ccccc4C(=O)NC)n3)ccc1C2` (racemic) [Example 101, (+/−)-2-[5-Chloro-2-(12-ethyl-12-aza-tricyclo[7.2.1.0*2,7*]dodeca-2(7),3,5-trien-4-ylamino)-pyrimidin-4-ylamino]-N-methyl-benzamide], the IC50 in assay [1] (setting [9]) and in assay [2] (setting [10]) was less than 100 nM throughout.

For `CNC(=O)c1ccccc1Nc1nc(Nc2ccc3c(c2)C2CCC3CN(C(C)C)C2)ncc1Cl` (centres unmarked) [Example 273, 2-[5-Chloro-2-(10-isopropyl-10-aza-tricyclo[6.3.2.0*2,7*]trideca-2,4,6-trien-4-ylamino)-pyrimidin-4-ylamino]-N-methyl-benzamide], the IC50 in assay [1] (setting [9]) and in assay [2] (setting [10]) was less than 100 nM throughout.

For `COc1cc2c(cc1Nc1ncc(Cl)c(Nc3ccc(N4CCOCC4)cc3OC)n1)N(C)CCN(S(C)(=O)=O)C2` [Example 494, 5-Chloro-N*2*-(4-methanesulfonyl-7-methoxy-1-methyl-2,3,4,5-tetrahydro-1H-benzo[e][1,4]diazepin-8-yl)-N*4*-(2-methoxy-4-morpholin-4-yl-phenyl)-pyrimidine-2,4-diamine], the results for the IC50 in assay [1] (setting [9]) and in assay [2] (setting [10]) were more than 10000 nM and less than 100 nM, respectively.

Take `CNC(=O)c1cccc(F)c1Nc1nc(Nc2ccc3c(c2)N(C(=O)CN2C(=O)c4ccccc4C2=O)CCCC3(C)C)ncc1Cl` [Example 1616, 2-(5-Chloro-2-{1-[2-(1,3-dioxo-1,3-dihydro-isoindol-2-yl)-acetyl]-5,5-dimethyl-2,3,4,5-tetrahydro-1H-benzo[b]azepin-8-ylamino}-pyrimidin-4-ylamino)-3-fluoro-N-methyl-benzamide]: the IC50 in assay [1] (setting [3]) and in assay [2] (setting [4]) was 100 to 1000 nM throughout.

On to `CNS(=O)(=O)c1ccccc1Nc1nc(Nc2ccc3c(c2)COCCN3C)ncc1Cl` [Example 17, 2-[5-Chloro-2-(1-methyl-1,2,3,5-tetrahydro-benzo[e][1,4]oxazepin-7-ylamino)-pyrimidin-4-ylamino]-N-methyl-benzenesulfonamide], for which the IC50 in assay [1] (setting [9]) and in assay [2] (setting [10]) was less than 100 nM in each case.

Consider `CNC(=O)c1ccc(C(F)(F)F)cc1Nc1nc(Nc2ccc3c(c2)CCOC(=O)N3C)ncc1Cl` [Example 1754, 2-[5-Chloro-2-(5-methyl-6-oxo-5,6,8,9-tetrahydro-7-oxa-5-aza-benzocyclohepten-2-ylamino)-pyrimidin-4-ylamino]-N-methyl-4-trifluoromethyl-benzamide], for which the IC50 in assay [1] (setting [3]) and in assay [2] (setting [4]) was 100 to 1000 nM throughout.

Take `COCCN1CCc2ccc(Nc3ncc(Cl)c(Nc4c(F)cccc4C(=O)NCC#N)n3)cc2CC1` [Example 1079, 2-{5-Chloro-2-[3-(2-methoxy-ethyl)-2,3,4,5-tetrahydro-1H-benzo[d]azepin-7-ylamino]-pyrimidin-4-ylamino}-N-cyanomethyl-3-fluoro-benzamide]: the IC50 in assay [1] (setting [7]) and in assay [2] (setting [8]) was less than 100 nM each time.

For the molecule `CCN1CCN(CC)c2cc(Nc3ncc(Cl)c(Nc4cc(Cl)ccc4OC)n3)ccc2C1` [Example 719, 5-Chloro-N*4*(5-chloro-2-methoxy-phenyl-N*2*-(1,4-diethyl-2,3,4,5-tetrahydro-1H-benzo[e][1,4]diazepin-8-yl)-pyrimidine)-2,4-diamine], the figures for the IC50 in assay [1] (setting [5]) and in assay [2] (setting [6]) were 1000 to 10000 nM and less than 100 nM, respectively.

As to `CCN1C2CCC1c1c(ccc(Nc3ncc(Cl)c(Nc4ccccc4C(=O)NC)n3)c1Cl)C2` (centres unmarked) [Example 73, 2-[5-Chloro-2-(3-chloro-12-ethyl-12-aza-tricyclo[7.2.1.0*2,7*]dodeca-2(7),3,5-trien-4-ylamino)-pyrimidin-4-ylamino]-N-methyl-benzamide], the figures for the IC50 in assay [1] (setting [9]) and in assay [2] (setting [10]) were 100 to 1000 nM and less than 100 nM, respectively.

With `CNC(=O)c1ccccc1Nc1nc(Nc2ccc3c(c2)COCC2CCCCN32)ncc1Cl` (centres unmarked) [Example 14, 2-[5-Chloro-2-(7,7a,8,9,10,11-hexahydro-5H-6-oxa-11a-aza-dibenzo[a,c]cyclohepten-3-ylamino)-pyrimidin-4-ylamino]-N-methyl-benzamide], the IC50 in assay [1] (setting [9]) and in assay [2] (setting [10]) was less than 100 nM each time.

Consider `CNC(=O)c1cccc(F)c1Nc1nc(Nc2ccc3c(c2)N(C(C)C)C(=O)CCC3)ncc1Cl` [Example 1474, 2-[5-Chloro-2-(1-isopropyl-2-oxo-2,3,4,5-tetrahydro-1H-benzo[b]azepin-8-ylamino)-pyrimidin-4-ylamino]-3-fluoro-N-methyl-benzamide], for which the IC50 in assay [1] (setting [3]) was 100 to 1000 nM; in assay [2] (setting [4]), less than 100 nM.

Regarding “N-(2-{5-Chloro-2-[3-methyl-5-oxo-1-(2,2,2-trifluoro-acetyl)-2,3,4,5-tetrahydro-1H-benzo[e][1,4]diazepin-6-ylamino]-pyrimidin-4-ylamino}-phenyl)-methanesulfonamide and N-(2-{5-Chloro-2-[2-methyl-5-oxo-1-(2,2,2-trifluoro-acetyl)-2,3,4,5-tetrahydro-1H-benzo[e][1,4]diazepin-6-ylamino]-pyrimidin-4-ylamino}-phenyl)-methanesulfonamide (Mixture of regioisomers) [Example 230]”, the values for the IC50 in assay [1] (setting [9]) and in assay [2] (setting [10]) were 1000 to 10000 nM and less than 100 nM, respectively.

In the case of `CNC(=O)c1ccc(Cl)c(Cl)c1Nc1nc(Nc2ccc3c(c2)CCOC(=O)N3C)ncc1Cl` [Example 1757, 3,4-Dichloro-2-[5-chloro-2-(5-methyl-6-oxo-5,6,8,9-tetrahydro-7-oxa-5-aza-benzocyclohepten-2-ylamino)-pyrimidin-4-ylamino]-N-methyl-benzamide], the IC50 in assay [1] (setting [3]) is less than 100 nM; in assay [2] (setting [4]), 100 to 1000 nM.

Regarding `CCN1C(=O)CN(CCO)Cc2ccc(Nc3ncc(Cl)c(Nc4c(F)cccc4C(=O)NC)n3)cc21` [Example 1873, 2-{5-Chloro-2-[1-ethyl-4-(2-hydroxy-ethyl)-2-oxo-2,3,4,5-tetrahydro-1H-benzo[e][1,4]diazepin-8-ylamino]-pyrimidin-4-ylamino}-3-fluoro-N-methyl-benzamide], the IC50 in assay [1] (setting [3]) was less than 100 nM; in assay [2] (setting [4]), 100 to 1000 nM.

As to `COCCOC(=O)C1[C@@H]2C=C[C@@H](C2)[C@H]1Nc1nc(Nc2ccc3c(c2OC)CC[C@@H](N2CCOCC2)CC3)ncc1Cl` (single isomer, unassigned) [Example 905], the IC50 was more than 10000 nM in assay [1] (setting [5]) and 100 to 1000 nM in assay [2] (setting [6]).

Consider `COc1cc2c(cc1Nc1ncc(Cl)c(Nc3ccc(N4CCC(N5CCN(C)CC5)CC4)cc3OC)n1)CCN(CC(=O)N(C)C)CC2` [Example 819, 2-[7-(5-Chloro-4-{2-methoxy-4-[4-(4-methyl-piperazin-1-yl)-piperidin-1-yl]-phenylamino}-pyrimidin-2-ylamino)-8-methoxy-1,2,4,5-tetrahydro-benzo[d]azepin-3-yl]-N,N-dimethyl-acetamide], for which the IC50 in assay [1] (setting [5]) was more than 10000 nM; in assay [2] (setting [6]) it was less than 100 nM.

The values are drawn from patent US8148391B2 (Cephalon, Inc., priority 2006, dated 2012).
